Measurements published in the kinase profiling compilation of Christmann-Franck et al. (2016).

Legend:
Test in all cases: KINOMEscan competition binding
Conditions in all cases: compound 10.0 µM
BTK (human) = BTK (human) (UniProt Q06187)
CASK (human) = CASK (human) (UniProt O14936)
CDK2 (human) = CDK2 (human) (UniProt P24941)
CDKL5 (human) = CDKL5 (human) (UniProt O76039)
[1] = system: EGFR (human), P00533 [P753S; 747-752 del]
EIF2AK1 (human) = EIF2AK1 (human) (UniProt Q9BQI3)
EPHB6 (human) = EPHB6 (human) (UniProt O15197)
GRK1 (human) = GRK1 (human) (UniProt Q15835)
GRK4 (human) = GRK4 (human) (UniProt P32298)
HIPK2 (human) = HIPK2 (human) (UniProt Q9H2X6)
HIPK3 (human) = HIPK3 (human) (UniProt Q9H422)
HUNK (human) = HUNK (human) (UniProt P57058)
IRAK1 (human) = IRAK1 (human) (UniProt P51617)
IRAK4 (human) = IRAK4 (human) (UniProt Q9NWZ3)
LRRK2 (human) = LRRK2 (human) (UniProt Q5S007)
MAP2K5 (human) = MAP2K5 (human) (UniProt Q13163)
MAP3K1 (human) = MAP3K1 (human) (UniProt Q13233)
MAP3K15 (human) = MAP3K15 (human) (UniProt Q6ZN16)
MAP3K2 (human) = MAP3K2 (human) (UniProt Q9Y2U5)
MATK (human) = MATK (human) (UniProt P42679)
MET (human) = MET (human) (UniProt P08581)
MTOR (human) = MTOR (human) (UniProt P42345)
MYLK3 (human) = MYLK3 (human) (UniProt Q32MK0)
NEK11 (human) = NEK11 (human) (UniProt Q8NG66)
NEK4 (human) = NEK4 (human) (UniProt P51957)
[2] = system: PIK3CA (human), P42336 [E545A]
[3] = system: PIK3CA (human), P42336 [I800L]
PKN3 (M.tuberculosis) = PKN3 (M.tuberculosis) (UniProt Q6P5Z2)
PLK2 (human) = PLK2 (human) (UniProt Q9NYY3)
PRPF4B (human) = PRPF4B (human) (UniProt Q13523)
ROCK1 (human) = ROCK1 (human) (UniProt Q13464)
SIK3 (human) = SIK3 (human) (UniProt Q9Y2K2)
SNRK (human) = SNRK (human) (UniProt Q9NRH2)
STK38 (human) = STK38 (human) (UniProt Q15208)
TAOK2 (human) = TAOK2 (human) (UniProt Q9UL54)
TBK1 (human) = TBK1 (human) (UniProt Q9UHD2)
TRPM6 (human) = TRPM6 (human) (UniProt Q9BX84)
VRK2 (human) = VRK2 (human) (UniProt Q86Y07)
[4] = system: EGFR (human), P00533 [L861Q]
[5] = system: KIT (human), P10721 [V559D/T670I]

Chain of PRPF4B (human) (Q13523 whole entry, looked up): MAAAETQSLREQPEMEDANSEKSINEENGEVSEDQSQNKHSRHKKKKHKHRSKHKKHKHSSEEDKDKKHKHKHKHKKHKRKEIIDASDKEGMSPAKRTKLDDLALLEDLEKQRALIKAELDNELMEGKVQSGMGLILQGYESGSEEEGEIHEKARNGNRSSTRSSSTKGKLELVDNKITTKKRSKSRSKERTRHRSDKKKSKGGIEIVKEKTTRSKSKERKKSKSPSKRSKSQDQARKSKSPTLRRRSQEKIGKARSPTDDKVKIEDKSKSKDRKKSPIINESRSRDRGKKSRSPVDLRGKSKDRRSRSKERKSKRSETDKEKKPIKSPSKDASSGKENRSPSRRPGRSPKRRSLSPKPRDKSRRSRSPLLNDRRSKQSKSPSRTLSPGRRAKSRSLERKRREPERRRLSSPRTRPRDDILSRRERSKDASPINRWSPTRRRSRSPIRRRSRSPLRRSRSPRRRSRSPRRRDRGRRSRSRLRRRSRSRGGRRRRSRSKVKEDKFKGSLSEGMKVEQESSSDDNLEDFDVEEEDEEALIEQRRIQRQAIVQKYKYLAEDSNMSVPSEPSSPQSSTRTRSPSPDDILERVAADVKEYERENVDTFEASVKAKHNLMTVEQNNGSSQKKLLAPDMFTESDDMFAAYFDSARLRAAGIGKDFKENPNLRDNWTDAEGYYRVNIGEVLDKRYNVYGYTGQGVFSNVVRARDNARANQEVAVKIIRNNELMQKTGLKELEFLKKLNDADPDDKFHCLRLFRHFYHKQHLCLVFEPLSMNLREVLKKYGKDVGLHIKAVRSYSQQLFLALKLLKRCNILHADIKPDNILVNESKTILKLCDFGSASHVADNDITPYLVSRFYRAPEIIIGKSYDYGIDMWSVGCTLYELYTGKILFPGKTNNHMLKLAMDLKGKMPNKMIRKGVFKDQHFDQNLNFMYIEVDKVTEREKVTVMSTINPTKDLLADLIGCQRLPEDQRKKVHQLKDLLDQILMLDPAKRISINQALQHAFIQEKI
Chain of SIK3 (human) (Q9Y2K2 whole entry, looked up): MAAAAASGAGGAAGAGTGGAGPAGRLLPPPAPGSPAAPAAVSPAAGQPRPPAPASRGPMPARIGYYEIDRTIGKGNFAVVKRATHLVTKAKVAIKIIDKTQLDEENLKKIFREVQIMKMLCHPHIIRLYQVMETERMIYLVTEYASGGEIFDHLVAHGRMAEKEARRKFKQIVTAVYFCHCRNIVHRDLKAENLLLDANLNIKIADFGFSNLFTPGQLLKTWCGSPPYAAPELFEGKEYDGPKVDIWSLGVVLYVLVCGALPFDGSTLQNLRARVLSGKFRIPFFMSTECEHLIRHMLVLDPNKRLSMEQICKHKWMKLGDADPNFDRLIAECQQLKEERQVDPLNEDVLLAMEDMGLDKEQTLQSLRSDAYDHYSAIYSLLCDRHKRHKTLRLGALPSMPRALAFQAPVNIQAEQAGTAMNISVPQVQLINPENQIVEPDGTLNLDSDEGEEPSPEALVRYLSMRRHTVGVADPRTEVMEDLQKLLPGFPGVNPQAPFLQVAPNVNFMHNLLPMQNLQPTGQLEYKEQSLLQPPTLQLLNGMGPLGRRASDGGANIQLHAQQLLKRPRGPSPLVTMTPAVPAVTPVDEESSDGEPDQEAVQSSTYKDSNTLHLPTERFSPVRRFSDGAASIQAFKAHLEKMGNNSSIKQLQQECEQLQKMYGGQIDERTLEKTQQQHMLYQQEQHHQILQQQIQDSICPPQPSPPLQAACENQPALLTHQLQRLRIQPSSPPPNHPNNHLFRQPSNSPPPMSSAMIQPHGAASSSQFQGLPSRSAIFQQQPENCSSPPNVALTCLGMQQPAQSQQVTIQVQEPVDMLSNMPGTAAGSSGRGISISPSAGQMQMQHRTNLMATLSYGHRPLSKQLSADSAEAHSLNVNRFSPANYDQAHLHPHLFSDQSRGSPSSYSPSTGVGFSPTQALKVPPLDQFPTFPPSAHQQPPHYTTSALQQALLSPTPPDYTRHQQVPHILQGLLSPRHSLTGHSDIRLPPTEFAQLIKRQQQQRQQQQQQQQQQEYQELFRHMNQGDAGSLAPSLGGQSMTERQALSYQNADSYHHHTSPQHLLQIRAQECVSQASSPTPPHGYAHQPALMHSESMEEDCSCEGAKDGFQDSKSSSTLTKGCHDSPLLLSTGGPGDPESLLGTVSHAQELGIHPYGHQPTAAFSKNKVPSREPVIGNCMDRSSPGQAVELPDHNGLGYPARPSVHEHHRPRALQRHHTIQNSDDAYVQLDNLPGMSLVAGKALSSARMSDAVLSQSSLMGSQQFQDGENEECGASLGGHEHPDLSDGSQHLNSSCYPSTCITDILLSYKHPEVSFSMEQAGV
Chain of HIPK2 (human) (Q9H2X6 whole entry, looked up): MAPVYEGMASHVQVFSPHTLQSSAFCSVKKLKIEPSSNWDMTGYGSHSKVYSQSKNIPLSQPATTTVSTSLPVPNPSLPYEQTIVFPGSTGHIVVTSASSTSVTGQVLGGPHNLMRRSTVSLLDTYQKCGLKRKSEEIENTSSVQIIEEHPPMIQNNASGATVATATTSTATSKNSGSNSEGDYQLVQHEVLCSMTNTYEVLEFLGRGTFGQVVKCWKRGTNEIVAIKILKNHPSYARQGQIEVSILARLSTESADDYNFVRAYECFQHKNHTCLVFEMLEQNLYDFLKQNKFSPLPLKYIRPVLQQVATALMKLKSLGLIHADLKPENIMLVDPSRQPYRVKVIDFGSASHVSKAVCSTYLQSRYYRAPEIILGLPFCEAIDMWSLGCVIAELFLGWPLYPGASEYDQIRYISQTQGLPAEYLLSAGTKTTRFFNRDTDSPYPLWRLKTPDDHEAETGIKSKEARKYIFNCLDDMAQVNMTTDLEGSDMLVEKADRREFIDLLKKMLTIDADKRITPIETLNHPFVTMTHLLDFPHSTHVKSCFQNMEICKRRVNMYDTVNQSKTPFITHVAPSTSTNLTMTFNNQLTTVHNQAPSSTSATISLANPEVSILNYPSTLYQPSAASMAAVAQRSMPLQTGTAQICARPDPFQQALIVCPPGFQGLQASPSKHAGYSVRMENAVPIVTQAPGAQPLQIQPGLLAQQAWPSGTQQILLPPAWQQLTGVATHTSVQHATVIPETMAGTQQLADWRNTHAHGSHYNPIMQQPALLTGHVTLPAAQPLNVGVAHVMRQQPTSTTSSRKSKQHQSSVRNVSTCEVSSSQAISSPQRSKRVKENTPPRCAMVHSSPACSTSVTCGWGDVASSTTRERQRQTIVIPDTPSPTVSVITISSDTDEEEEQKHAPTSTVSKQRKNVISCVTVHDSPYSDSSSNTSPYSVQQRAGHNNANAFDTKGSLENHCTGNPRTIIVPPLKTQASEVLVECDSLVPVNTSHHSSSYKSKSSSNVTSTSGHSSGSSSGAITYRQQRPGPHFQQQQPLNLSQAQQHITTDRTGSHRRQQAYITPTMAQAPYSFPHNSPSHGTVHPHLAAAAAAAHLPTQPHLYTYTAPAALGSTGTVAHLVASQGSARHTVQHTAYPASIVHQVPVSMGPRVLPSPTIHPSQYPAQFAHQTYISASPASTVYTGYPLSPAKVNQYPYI
Chain of TAOK2 (human) (Q9UL54 whole entry, looked up): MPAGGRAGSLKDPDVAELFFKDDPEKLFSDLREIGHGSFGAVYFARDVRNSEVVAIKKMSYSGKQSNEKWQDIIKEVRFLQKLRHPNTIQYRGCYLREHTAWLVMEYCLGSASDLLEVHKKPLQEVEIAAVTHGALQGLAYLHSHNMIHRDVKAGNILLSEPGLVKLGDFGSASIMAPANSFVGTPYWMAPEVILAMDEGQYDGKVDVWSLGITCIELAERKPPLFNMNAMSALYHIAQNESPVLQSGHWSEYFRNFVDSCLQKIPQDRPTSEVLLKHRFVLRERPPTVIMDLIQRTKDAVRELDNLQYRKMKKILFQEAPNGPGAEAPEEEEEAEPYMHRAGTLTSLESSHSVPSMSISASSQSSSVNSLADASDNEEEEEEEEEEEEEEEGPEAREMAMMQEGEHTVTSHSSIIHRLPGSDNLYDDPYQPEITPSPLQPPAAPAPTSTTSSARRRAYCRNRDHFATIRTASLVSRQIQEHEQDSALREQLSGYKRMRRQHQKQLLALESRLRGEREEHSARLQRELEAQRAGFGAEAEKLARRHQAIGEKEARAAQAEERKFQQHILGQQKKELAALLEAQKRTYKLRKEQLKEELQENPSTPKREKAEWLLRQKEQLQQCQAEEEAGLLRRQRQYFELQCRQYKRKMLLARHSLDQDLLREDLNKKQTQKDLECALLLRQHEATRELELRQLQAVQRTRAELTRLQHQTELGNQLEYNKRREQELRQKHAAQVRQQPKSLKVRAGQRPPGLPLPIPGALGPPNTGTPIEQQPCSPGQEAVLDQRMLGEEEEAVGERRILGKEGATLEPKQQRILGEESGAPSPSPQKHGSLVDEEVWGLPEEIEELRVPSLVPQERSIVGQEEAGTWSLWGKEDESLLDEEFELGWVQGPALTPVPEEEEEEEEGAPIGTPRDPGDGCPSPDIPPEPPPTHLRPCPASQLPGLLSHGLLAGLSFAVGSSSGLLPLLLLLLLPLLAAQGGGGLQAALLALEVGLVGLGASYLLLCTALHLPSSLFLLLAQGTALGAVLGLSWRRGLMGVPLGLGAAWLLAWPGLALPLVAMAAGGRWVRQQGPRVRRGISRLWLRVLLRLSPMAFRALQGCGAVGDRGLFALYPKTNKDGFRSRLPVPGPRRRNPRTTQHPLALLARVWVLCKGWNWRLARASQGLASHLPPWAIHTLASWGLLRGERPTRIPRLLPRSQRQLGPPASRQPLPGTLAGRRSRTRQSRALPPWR

Row | Compound | kinase still bound, per cent of control (BTK (human)) [%] | kinase still bound, per cent of control (CASK (human)) [%] | kinase still bound, per cent of control (CDK2 (human)) [%] | kinase still bound, per cent of control (CDKL5 (human)) [%] | kinase still bound, per cent of control (EIF2AK1 (human)) [%] | kinase still bound, per cent of control (EPHB6 (human)) [%] | kinase still bound, per cent of control (GRK1 (human)) [%] | kinase still bound, per cent of control (GRK4 (human)) [%] | kinase still bound, per cent of control (HIPK2 (human)) [%] | kinase still bound, per cent of control (HIPK3 (human)) [%] | kinase still bound, per cent of control (HUNK (human)) [%] | kinase still bound, per cent of control (IRAK1 (human)) [%] | kinase still bound, per cent of control (IRAK4 (human)) [%] | kinase still bound, per cent of control (LRRK2 (human)) [%] | kinase still bound, per cent of control (MAP2K5 (human)) [%] | kinase still bound, per cent of control (MAP3K1 (human)) [%] | kinase still bound, per cent of control (MAP3K15 (human)) [%] | kinase still bound, per cent of control (MAP3K2 (human)) [%] | kinase still bound, per cent of control (MATK (human)) [%] | kinase still bound, per cent of control (MET (human)) [%] | also measured
1 | O=C(O)c1ccc(Nc2ncc3c(n2)-c2ccc(Cl)cc2C(c2c(F)cccc2F)=NC3)cc1 | 28 | 91 | 84 | 100 | 89 | 41 | 100 | 100 | 100 | 80 | 59 | 93 | 100 | 82 | 80 | 100 | 82 | 100 | 84 | 49 | kinase still bound, per cent of control [1]: 28%; kinase still bound, per cent of control (MTOR (human)): 75%; kinase still bound, per cent of control (MYLK3 (human)): 100%; kinase still bound, per cent of control (NEK11 (human)): 100%; kinase still bound, per cent of control (NEK4 (human)): 66%; kinase still bound, per cent of control [2]: 20%; kinase still bound, per cent of control [3]: 84%; kinase still bound, per cent of control (PKN3 (M.tuberculosis)): 96%; kinase still bound, per cent of control (PLK2 (human)): 29%; kinase still bound, per cent of control (PRPF4B (human)): 100%; kinase still bound, per cent of control (ROCK1 (human)): 63%; kinase still bound, per cent of control (SIK3 (human)): 98%; kinase still bound, per cent of control (SNRK (human)): 74%; kinase still bound, per cent of control (STK38 (human)): 100%; kinase still bound, per cent of control (TAOK2 (human)): 94%; kinase still bound, per cent of control (TBK1 (human)): 100%; kinase still bound, per cent of control (TRPM6 (human)): 100%; kinase still bound, per cent of control (VRK2 (human)): 100%
2 | Cc1cc([C@@H](C)Nc2ccccc2C(=O)O)c2nc(N3CCOCC3)cc(=O)n2c1 | 97 | 92 | 93 | 74 | 97 | 41 | 100 | 90 | 79 | 89 | 81 | 90 | 100 | 100 | 100 | 90 | 87 | 100 | 96 | 86 | kinase still bound, per cent of control [4]: 100%; kinase still bound, per cent of control [1]: 100%; kinase still bound, per cent of control [5]: 91%; kinase still bound, per cent of control (MTOR (human)): 11%; kinase still bound, per cent of control (MYLK3 (human)): 100%; kinase still bound, per cent of control (NEK11 (human)): 100%; kinase still bound, per cent of control (NEK4 (human)): 61%; kinase still bound, per cent of control (PKN3 (M.tuberculosis)): 98%; kinase still bound, per cent of control (PLK2 (human)): 99%; kinase still bound, per cent of control (PRPF4B (human)): 71%; kinase still bound, per cent of control (ROCK1 (human)): 73%; kinase still bound, per cent of control (SIK3 (human)): 95%; kinase still bound, per cent of control (SNRK (human)): 89%; kinase still bound, per cent of control (STK38 (human)): 100%; kinase still bound, per cent of control (TAOK2 (human)): 94%; kinase still bound, per cent of control (TBK1 (human)): 100%; kinase still bound, per cent of control (TRPM6 (human)): 100%; kinase still bound, per cent of control (VRK2 (human)): 100%
3 | N#Cc1c(NC(=O)c2cccc3ccccc23)sc2c1CCCC2 | 90 | 71 | 95 | 70 | 100 | 85 | 100 | 100 | 100 | 43 | 95 | 100 | 100 | 94 | 100 | 59 | 100 | 100 | 100 | 66 | kinase still bound, per cent of control [5]: 78%; kinase still bound, per cent of control (MTOR (human)): 100%; kinase still bound, per cent of control (MYLK3 (human)): 100%; kinase still bound, per cent of control (NEK11 (human)): 100%; kinase still bound, per cent of control (NEK4 (human)): 76%; kinase still bound, per cent of control [2]: 80%; kinase still bound, per cent of control [3]: 98%; kinase still bound, per cent of control (PKN3 (M.tuberculosis)): 100%; kinase still bound, per cent of control (PLK2 (human)): 100%; kinase still bound, per cent of control (PRPF4B (human)): 100%; kinase still bound, per cent of control (ROCK1 (human)): 100%; kinase still bound, per cent of control (SIK3 (human)): 65%; kinase still bound, per cent of control (SNRK (human)): 100%; kinase still bound, per cent of control (STK38 (human)): 100%; kinase still bound, per cent of control (TAOK2 (human)): 100%; kinase still bound, per cent of control (TBK1 (human)): 88%; kinase still bound, per cent of control (TRPM6 (human)): 100%; kinase still bound, per cent of control (VRK2 (human)): 100%
